Data reported in PubChem BioAssay (NCI).
Values joined by “and” are separate entries in the source; they are usually repeats but may differ in a detail not shown here. Identical values can stand only once.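 Cultured in 96-well plates, cells were exposed to test compound for 48 hours across five concentrations. Abbreviation: GI50, concentration required for 50% inhibition of growth. TGI denotes the concentration required for complete inhibition of growth.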

Tests used:
Assay in all cases: growth of human tumour cells (NCI), 48 h
A549 NSCLC = system: A549 NSCLC
CAKI-1 renal = system: CAKI-1 renal
HCC-2998 colon = system: HCC-2998 colon
HCT-15 colon = system: HCT-15 colon
HOP-92 NSCLC = system: HOP-92 NSCLC
M14 melanoma = system: M14 melanoma
SF-539 CNS = system: SF-539 CNS
SK-MEL-28 melanoma = system: SK-MEL-28 melanoma
SK-MEL-5 melanoma = system: SK-MEL-5 melanoma
SK-OV-3 ovarian = system: SK-OV-3 ovarian

SMILES	TGI (A549 NSCLC) [µM]	TGI (CAKI-1 renal) [µM]	TGI (HCC-2998 colon) [µM]	TGI (HCT-15 colon) [µM]	TGI (HOP-92 NSCLC) [µM]	TGI (M14 melanoma) [µM]	TGI (SF-539 CNS) [µM]	TGI (SK-MEL-28 melanoma) [µM]	TGI (SK-MEL-5 melanoma) [µM]	TGI (SK-OV-3 ovarian) [µM]	GI50 (SF-539 CNS)	GI50 (A549 NSCLC) [µM]	GI50 (CAKI-1 renal) [µM]	GI50 (HCC-2998 colon) [µM]	GI50 (HOP-92 NSCLC) [µM]	GI50 (SK-MEL-28 melanoma) [µM]	GI50 (SK-MEL-5 melanoma) [µM]	GI50 (SK-OV-3 ovarian) [µM]
NC1=NCC(CN2CCCC2)O1 (centres undefined)	> 100	> 100	> 100	> 100	> 100	> 100	> 100	> 100	> 100	> 100								
CCOP(=O)(OCC)C(C)(CC)NC(=O)C(C(F)(F)F)C(F)(F)F (centres undefined)	> 100	> 100	> 100	> 100	> 100	> 100	> 100	> 100	> 100	> 100	48.1 µM and > 100 µM							
CC(C)C1(O)C(=O)N(c2c(F)c(F)c(F)c(F)c2F)C(=S)N1CCSc1ccccc1 (centres undefined)	29.2	24.7	34.8	33	22.2	31.9	35.1	30.3	32.7	31								
NC(=O)CO/N=C1/C(c2c(O)[nH]c3ccccc23)=Nc2ccccc21	> 100	> 100		> 100	> 100	> 100	> 100	> 100	> 100	> 100								
O=c1cc(NCc2ccncc2)[nH]c(=O)[nH]1	> 100	> 100	> 100	> 100	> 100	> 100	> 100	> 100	> 100	> 100								
C#CCC1(C(=O)OCC)C(=O)c2ccccc2N(C)C1=O (centres undefined)		> 100		> 100	> 100	> 100	> 100	> 100	> 100	> 100								
CO[C@H]1C[C@H](O[C@H]2CC[C@]3(C=O)[C@H]4CC[C@]5(C)[C@@H](C6=CC(=O)OC6)CC[C@]5(O)[C@@H]4CC[C@]3(O)C2)O[C@H](C)[C@H]1O	0.198	0.0947	8.36	0.732	1.73	4.19	0.218	5.37	0.385	0.815								
CCOC(=O)C1(C(F)(F)F)N=C(CC)OC(N2CCOCC2)=N1 (centres undefined)	> 100	> 100	> 100	> 100	> 100	> 100	> 100	> 100	> 100	> 100								
COc1ccc(CCN2CCc3c(C)c(C#N)c4nc5ccccc5n4c32)cc1OC	> 100	> 100	> 100	> 100	90.6	> 100	> 100	> 100	52	> 100								
O=[N+]([O-])c1cccnc1-n1cnc2ccccc21	> 100	> 100	> 100	> 100	> 100	> 100	> 100	> 100	> 100	> 100								
COc1ccc2nc3n(c2c1)CCc1cc(OC)c(OC)cc1-3	> 100	> 100	52.9	> 100	> 100	> 100	> 100	> 100	47.2	> 100								
CCN(CC)c1ccc2cc(-c3nc4ccccc4c(=O)[nH]3)c(=N)oc2c1	> 100	> 100	> 100	> 100	> 100	> 100	> 100	> 100	> 100	> 100								
CCOC(=O)C1CCCCN1CCc1c[nH]c2ccccc12 (centres undefined)	> 100	> 100	> 100	> 100	> 100	> 100	> 100	> 100	> 100	> 100								
CN(C)c1ccc(/C=C2\N=C(c3ccccc3)N(c3ccc4c(c3)Sc3cc(N5C(=O)/C(=C/c6ccc(N(C)C)cc6)N=C5c5ccccc5)ccc3N4)C2=O)cc1	52.2	37.4	37.9	> 100	35.1	40.7	32.8	> 100	32.1	26.7								
NS(=O)(=O)c1ccc(NNc2c3ccccc3nc3c(C(=O)Nc4ccc(S(=O)(=O)Nc5ncccn5)cc4)cccc23)cc1	> 25	> 25	> 25	> 25	> 25	> 25	> 25	> 25	> 25	> 25								
CC1(C2CCC3(C)OC3C2)CO1 (centres undefined)	> 100	> 100	> 100		> 100	> 100	> 100	> 100	> 100	> 100								
CC(=O)O[C@H]1CC[C@@]2(C)[C@H](CC[C@@H]3[C@@H]2CC[C@]2(C)[C@@H](c4ccc(=O)oc4)C[C@H]4O[C@]342)C1	0.759	1.31	8.88	29.5	3.67		1.72	20.9	1.51	5.68								
c1ccc(-c2nnn(CCN3CCCCC3)n2)cc1	> 100	> 100	> 100	> 100	> 100	> 100		> 100	> 100	> 100								
CO[C@]1(CN2CCN3CCCC[C@@H]3C2)/C=C/C[C@H](C)[C@@H](C)S(=O)(=O)NC(=O)c2ccc3c(c2)N(C[C@@H]2CC[C@H]21)C[C@@]1(CCCc2cc(Cl)ccc21)CO3	10.6	4.24	2.73		3.46		2.72	3.44	3.11	7.5	1.39 µM	2.75	1.79	1.4	1.67	1.86	1.71	2.67
Cc1cc2c(c(=O)n1C)SCC2	> 100	> 100	> 100	> 100	> 100	> 100		> 100	> 100	> 100								
Cc1ccc(-c2n[nH]c(=O)n2/N=C\c2ccccc2)cc1	> 100	> 100	> 100	> 100	66.4	> 100	> 100	> 100	> 100									
